Measured values taken from patent US8933075B2, “Compounds useful as antiviral agents, compositions, and methods of use” (priority 2010, dated 2015).

Each compound was assayed on A/Udorn/72 (H3N2) virus (assay: Plaque assay in MDCK cells: EC50 by reduction of plaque number). Conditions: not given.
Type: cell-based, influenza virus

SMILES	EC50
COc1cccc(-c2cc(CCCO)c(/C=C3\SC(=S)N(C4C5CC6CC(C5)CC4C6)C3=O)[nH]2)c1 (centres unmarked) [Compound 238]	250 to 1000 nM

Same assay, conditions: MDCK

SMILES	EC50
COc1ccc(-c2ccc(/C=C3\SC(=S)N(C4CC5CCC4C5)C3=O)o2)cc1O (centres unmarked) [Compound 10]	< 100 nM
O=C(O)c1ccc(-c2ccc(/C=C3\SC(=S)N(C4C5CC6CC(C5)CC4C6)C3=O)o2)cc1 (centres unmarked) [Compound 3]	< 100 nM
O=C1/C(=C/c2ccc(-c3cc(O)cc(O)c3)o2)SC(=S)N1C1C2CC3CC(C2)CC1C3 (centres unmarked) [Compound 5]	< 100 nM
COc1cc(OC)cc(-c2cc(CCCN3CCOCC3)c(/C=C3\SC(=S)N(C4C5CC6CC(C5)CC4C6)C3=O)o2)c1 (centres unmarked) [Compound 182]	< 100 nM
COc1cccc(-c2c(C#CCCCOC(=O)[C@H](CC(N)=O)NC(=O)OC(C)(C)C)cc(/C=C3\SC(=S)N(C4CC5CCC4C5)C3=O)n2C)c1 (some centres unmarked) [Compound 271]	< 100 nM
O=C1/C(=C/c2oc(-c3ccc(C(F)(F)F)cc3)cc2CCCCCO)SC(=S)N1C1CC2CCC1C2 (centres unmarked) [Compound 337]	< 100 nM
O=C1/C(=C/c2cc(CCCO)c(-c3ccc(Cl)cc3)n2Cc2ccccc2)SC(=S)N1C1CC2CCC1C2 (centres unmarked) [Compound 256]	< 100 nM
COc1cc(OC)cc(-c2cc(CCC(=O)O)c(/C=C3\SC(=S)N(C4CC5CCC4C5)C3=O)o2)c1 (centres unmarked) [Compound 132]	< 100 nM
O=C1/C(=C/c2c[nH]c3ccccc23)SC(=S)N1C1CC2CCC1C2 (centres unmarked) [Compound 216, (Z)-5-((1H-indol-3-yl)methylene)-3-(bicyclo[2.2.1]heptan-2-yl)-2-thioxothiazolidin-4-one]	< 100 nM
O=C1/C(=C/c2oc(-c3ccc(F)cc3)cc2CCCCO)SC(=S)N1C1C2CC3CC(C2)CC1C3 (centres unmarked) [Compound 116]	< 100 nM
O=C1/C(=C/c2sc(-c3ccc(Cl)cc3)cc2C#CCCCO)SC(=S)N1C1C2CC3CC(C2)CC1C3 (centres unmarked) [Compound 290]	< 100 nM
COC(=O)C[C@H](NC(=O)c1cc(-c2ccc(/C=C3\SC(=S)N(C4CC5CCC4C5)C3=O)o2)ccc1OC)C(=O)O (some centres unmarked) [Compound 90]	100 to 250 nM
O=C1/C(=C/c2oc(-c3ccc(F)cc3)cc2CCCN2CCNCC2)SC(=S)N1C1C2CC3CC(C2)CC1C3 (centres unmarked) [Compound 189]	< 100 nM
COc1cccc(-c2cc(CCCCCO)c(/C=C3\SC(=S)N(C4C5CC6CC(C5)CC4C6)C3=O)[nH]2)c1 (centres unmarked) [Compound 237]	< 100 nM
COc1cc(OC)cc(-c2cc(CCCCCOC(=O)[C@H](CC(N)=O)NC(=O)OC(C)(C)C)c(/C=C3\SC(=S)N(C4CC5CCC4C5)C3=O)o2)c1 (some centres unmarked) [Compound 150]	< 100 nM
COc1cc(OC)cc(-c2cc(CCCNC(=O)[C@@H](NC(=O)OC(C)(C)C)c3ccccc3)c(/C=C3\SC(=S)N(C4CC5CCC4C5)C3=O)o2)c1 (some centres unmarked) [Compound 162]	< 100 nM
CC(C)(C)OC(=O)N[C@@H](CC(N)=O)C(=O)OCCCC#Cc1cc(-c2cccc(Cl)c2)sc1/C=C1\SC(=S)N(C2CC3CCC2C3)C1=O (some centres unmarked) [Compound 311]	< 100 nM
O=C1/C(=C/c2sc(-c3cccc(Cl)c3)cc2CCCCCO)SC(=S)N1C1CC2CCC1C2 (centres unmarked) [Compound 277]	< 100 nM
COCOc1cc(-c2ccc(/C=C3\SC(=S)N(C4C5CC6CC(C5)CC4C6)C3=O)o2)cc(OC)c1OC (centres unmarked) [Compound 25]	< 100 nM
COC(=O)[C@@H](O)[C@H](O)C(=O)OCCCc1cc(-c2ccc(F)cc2)oc1/C=C1\SC(=S)N(C2CC3CCC2C3)C1=O (some centres unmarked) [Compound 177]	< 100 nM
COc1cccc(-c2cc(CCCO)c(/C=C3\SC(=S)N(C4CC5CCC4C5)C3=O)o2)c1 (centres unmarked) [Compound 353]	< 100 nM

SMILES	EC50
O=C1/C(=C/c2ncc(-c3ccccc3)o2)SC(=S)N1C1CCCCCC1 [Compound 65]	< 100 nM
COc1cc(O)cc(-c2cc(CCCC(C(=O)O)C(=O)O)c(/C=C3\SC(=S)N(C4C5CC6CC(C5)CC4C6)C3=O)o2)c1 (centres unmarked) [Compound 136]	100 to 250 nM
O=C1/C(=C/c2cc3ccccc3s2)SC(=S)N1C1CC2CCC1C2 (centres unmarked) [Compound 214, (Z)-5-(benzo[b]thiophen-2-ylmethylene)-3-(bicyclo[2.2.1]heptan-2-yl)-2-thioxothiazolidin-4-one]	< 100 nM
COc1cc(OCC(=O)O)cc(-c2ccc(/C=C3\SC(=S)N(C4C5CC6CC(C5)CC4C6)C3=O)o2)c1 (centres unmarked) [Compound 38]	< 100 nM
O=C1/C(=C/c2sc(-c3ccc(Cl)cc3)cc2CCCCCO)SC(=S)N1C1CC2CCC1C2 (centres unmarked) [Compound 278]	< 100 nM
COc1cc(-c2ccc(/C=C3\SC(=S)N(C4CC5CCC4C5)C3=O)o2)cc(OC)c1OC (centres unmarked) [Compound 2]	< 100 nM
CC(=O)OCCCc1cc(-c2ccc(Cl)cc2)[nH]c1/C=C1\SC(=S)N(C2CC3CCC2C3)C1=O (centres unmarked) [Compound 231]	< 100 nM
Cn1c(/C=C2\SC(=S)N(C3CC4CCC3C4)C2=O)cc(C#CCCCOC(=O)[C@H](CC(N)=O)NC(=O)OC(C)(C)C)c1-c1ccc(Cl)cc1 (some centres unmarked) [Compound 272]	< 100 nM
COc1cc(O)cc(-c2cc(CCCNC(=O)[C@@H](N)CCCN=C(N)N)c(/C=C3\SC(=S)N(C4CC5CCC4C5)C3=O)o2)c1 (some centres unmarked) [Compound 175]	< 100 nM
COc1ccc2c(O)c(-c3ccc(/C=C4\SC(=S)N(C5C6CC7CC(C6)CC5C7)C4=O)o3)c(=O)oc2c1 (centres unmarked) [Compound 74]	100 to 250 nM
O=C1/C(=C/c2oc(-c3ccc(Cl)cc3)cc2CCCCO)SC(=S)N1C1CC2CCC1C2 (centres unmarked) [Compound 333]	< 100 nM
COc1cc(-c2ccc(/C=C3\SC(=S)N(C4C5CC6CC(C5)CC4C6)C3=O)o2)cc(OC)c1OC (centres unmarked) [Compound 1]	< 100 nM
COc1cc(OC)cc(-c2cc(CCCCCN3CCOCC3)c(/C=C3\SC(=S)N(C4CC5CCC4C5)C3=O)o2)c1 (centres unmarked) [Compound 360]	< 100 nM
O=C1/C(=C/c2coc3ccc(Br)cc3c2=O)SC(=S)N1C1CCC2CCCCC2C1 (centres unmarked) [Compound 206]	< 100 nM
COc1cc(OC)cc(-c2cc(CCCNC(=O)[C@@H](N)CC(=O)O)c(/C=C3\SC(=S)N(C4CC5CCC4C5)C3=O)o2)c1 (some centres unmarked) [Compound 169]	< 100 nM
O=C1/C(=C/c2oc(-c3ccc(Cl)cc3)cc2CCCOC[C@@H](O)CO)SC(=S)N1C1CC2CCC1C2 (stereo partly drawn) [Compound 203, (Z)-3-(bicyclo[2.2.1]heptan-2-yl)-5-((3-(3-((S)-2,3-dihydroxypropoxy)propyl)-5-(4′-chlorophenyl)-furan-2-yl)methylene)-2-thioxothiazolidin-4-one]	< 100 nM
COc1ccc(-c2ccc(/C=C3\SC(=S)N(C4CC5CCC4C5)C3=O)o2)cc1C(=O)O (centres unmarked) [Compound 36]	< 100 nM
O=C1/C(=C/c2oc(-c3ccc(Cl)cc3)cc2CCCCCN2CCNCC2)SC(=S)N1C1CC2CCC1C2 (centres unmarked) [Compound 192]	< 100 nM
O=C1/C(=C/c2cc(CCCCCO)c(-c3ccc(Cl)cc3)s2)SC(=S)N1C1CC2CCC1C2 (centres unmarked) [Compound 284]	< 100 nM
COc1cc(COc2ccc3oc(=O)c(-c4ccc(/C=C5\SC(=S)N(C6CC7CCC6C7)C5=O)o4)c(O)c3c2)cc(OC)c1 (centres unmarked) [Compound 326]	< 100 nM
COc1cc(-c2ccc(/C=C3\SC(=S)N(C4C5CC6CC(C5)CC4C6)C3=O)o2)cc(OC)c1O (centres unmarked) [Compound 7]	< 100 nM

SMILES	EC50
O=C1/C(=C/c2oc(-c3ccccc3)cc2CO)SC(=S)N1C1CC2CCC1C2 (centres unmarked) [Compound 93]	< 100 nM
O=C1/C(=C/c2oc(-c3ccc(Cl)cc3)cc2CCCCO)SC(=S)N1C1C2CC3CC(C2)CC1C3 (centres unmarked) [Compound 335]	< 100 nM
COc1ccc(-c2ccc(/C=C3\SC(=S)N(C4CC5CCC4C5)C3=O)o2)cc1C(=O)N1CCC[C@H]1C(=O)O (some centres unmarked) [Compound 89]	< 100 nM
COc1ccc(-c2ccc(/C=C3\SC(=S)N(C4CC5CCC4C5)C3=O)o2)cc1OCC(=O)N[C@@H](Cc1ccc(O)cc1)C(=O)O (some centres unmarked) [Compound 77]	100 to 250 nM
COc1cc(OC)cc(-c2cc(CCCN3CCOCC3)c(/C=C3\SC(=S)N(C4CC5CCC4C5)C3=O)o2)c1 (centres unmarked) [Compound 181]	< 100 nM
O=C1/C(=C/c2oc(-c3ccc(F)cc3)cc2CCCCCCO)SC(=S)N1C1C2CC3CC(C2)CC1C3 (centres unmarked) [Compound 108]	< 100 nM
COc1cc(O)cc(-c2ccc(/C=C3\SC(=S)N(C4C5CC6CC(C5)CC4C6)C3=O)o2)c1 (centres unmarked) [Compound 18]	< 100 nM
COc1cc(OC)cc(-c2cc(CCCC(C(=O)O)C(=O)O)c(/C=C3\SC(=S)N(C4C5CC6CC(C5)CC4C6)C3=O)o2)c1 (centres unmarked) [Compound 135]	100 to 250 nM
COc1cc(OC)cc(-c2cc(CCCCCOC(=O)[C@]3(O)C[C@@H](O)[C@@H](O)[C@H](O)C3)c(/C=C3\SC(=S)N(C4CC5CCC4C5)C3=O)o2)c1 (some centres unmarked) [Compound 356]	< 100 nM
COc1cccc(-c2cc(CCCCCO)c(/C=C3\SC(=S)N(C4CC5CCC4C5)C3=O)n2C)c1 (centres unmarked) [Compound 262]	> 1000 nM
COc1cccc(-c2cc(CCCCCO)c(/C=C3\SC(=S)N(C4CC5CCC4C5)C3=O)o2)c1 (centres unmarked) [Compound 348]	< 100 nM
COc1cc(C)c(-c2ccc(/C=C3\SC(=S)N(C4CCCCCCC4)C3=O)o2)cc1C [Compound 49]	< 100 nM
O=C1/C(=C/c2ncc(-c3ccccc3)o2)SC(=S)N1C1CCCCCCC1 [Compound 66]	< 100 nM
Cn1c(-c2ccc(Cl)cc2)cc(CCCCCO)c1/C=C1\SC(=S)N(C2CC3CCC2C3)C1=O (centres unmarked) [Compound 260]	< 100 nM
COc1ccc(-c2cc(CCCO)c(/C=C3\SC(=O)N(C4CC5CCC4C5)C3=O)o2)cc1OCC(=O)N1CCC[C@H]1C(=O)O (some centres unmarked) [Compound 349]	< 100 nM
O=C1/C(=C/c2[nH]c(-c3ccc(Cl)cc3)cc2CCCO)SC(=S)N1C1C2CC3CC(C2)CC1C3 (centres unmarked) [Compound 234]	< 100 nM
COc1cc(OC)cc(-c2cc(CCCN3CCNCC3)c(/C=C3\SC(=S)N(C4C5CC6CC(C5)CC4C6)C3=O)o2)c1 (centres unmarked) [Compound 190]	< 100 nM
COc1cccc(-c2sc(/C=C3\SC(=S)N(C4C5CC6CC(C5)CC4C6)C3=O)cc2C#CCCCO)c1 (centres unmarked) [Compound 289]	< 100 nM
O=C1/C(=C/c2ccc(-c3c(O)c4ccc(OC5CCCCC5)cc4oc3=O)o2)SC(=S)N1C1CC2CCC1C2 (centres unmarked) [Compound 323]	< 100 nM
